Data taken from US20100322887A1, “HAIR NOURISHING COSMETIC” (SHOWA DENKO K.K., priority 2008, published 2010).

Key:
[1] = system: male C3H/HeN Sic mice; assay: Hair regrowth promotion test using mouse; type: in vivo; conditions: after 20 days
Protocol: 15 male C3H/HeN Sic 7-week old mice in the resting stage of the hair cycle had their hair at the back part shorn off carefully with an electric hair clipper and an electric shaver. These mice were divided into three groups each containing 5 mice. To the skin of the shorn part of each mouse in one group, 0.1 ml of a test sample shown in the following Table 4 was applied once a day, and to the skin of the shorn part of each mouse in another group, a base was applied in the same amount. The residual group in which nothing had been applied was regarded as an untreated control.
After 20 days from the beginning of the experiments, the back part of each mouse was photographed. By the use of an image analyzing software (Image-J), a ratio of the area where the hair had regrown to the whole area of the hair shorn part was calculated, and the resulting ratio was regarded as a hair regrowth ratio. The hair regrowth ratio of each mouse was calculated, and statistical analysis of the hair regrowth ratio of each group was carried out. The results are shown in FIG. 1 and the following Table 5.

[2] = Solubility in water; conditions: normal temperature

Compound | Hair regrowth ratio (%) Average ([1]; 0.1 ml once a day on shorn back skin, in Macrogol 400:Macrogol 4000 = 9:1 base, n=5) [%] | hair regrowth ratio (in words) ([1]; test sample group) | solubility in water [2]
tetrapotassium ubiquinol-1,4-diphosphate | 58.45 | tendency of enhancement | –
COC1=C(OC)C(=O)C(C/C=C(\C)CC/C=C(\C)CC/C=C(\C)CC/C=C(\C)CC/C=C(\C)CC/C=C(\C)CC/C=C(\C)CC/C=C(\C)CC/C=C(\C)CCC=C(C)C)=C(C)C1=O [ubiquinone] | – | – | less than 100 ppm
